Test results: US9345682B2, “Inhibition of STAT3 signal transduction for human cancer therapy” (University of South Florida, priority 1999, dated 2016)
“Also recorded” adds a separate entry of the source.

Columns and labels:
[1] = system: Bcl-xL overexpressing U266 cells; assay: Drug-induced apoptosis in U266 cells overexpressing Bcl-xL; type: cell-based, human; details: stable U266 clones overexpressing Bcl-xL; 24 h for melphalan and mitoxantrone
Experimental: FIG. 23 Enforced Overexpression of Bcl-x Confers Resistance to Chemotherapy. Panel A: U266 cells are transfected with a CMV expression vector encoding Bcl-x, tagged with the FLAG epitope. Several stable, independent clones overexpressing Bcl-xL, as well as empty vector controls (Neo), are isolated and analyzed by Western blot with antibodies to Bcl-xL, or the FLAG epitope tag. B: The indicated cell lines are incubated with either melphalan (LPAM) or mitoxantrone for 24 h, and apoptosis is monitored by AnnexinV-FITC staining and flow cytometry. Overexpression of Bcl-xL protects the cells from chemotherapy-induced apoptosis.
These Bcl-xL overexpressing cells are resistant to apoptosis induced by AG490, as predicted since the ectopic Bcl-xL is expressed from a CMV promoter and is thus independent of JAK-STAT signaling. […] These findings support one embodiment of the present invention, that Bcl-x confers resistance to chemotherapy-induced apoptosis, and therefore that inhibition of STAT3 signaling promotes chemotherapy-induced apoptosis.

Bcl-2 = Bcl-2 expression (RT-PCR, Western blot) in U266 cells; type: cell-based, human; details: AG490
Experimental: Cells are lysed in a buffer composed of 50 mM Tris-Cl, pH 7.4, 5 mM EDTA, 150 mM NaCl, and 0.5% Triton-X 100 containing 1 mg/ml leupeptin and aprotinin, and 1 mM PMSF. Protein content of the cell lysates is quantified by the Bradford assay (Bio-Rad), and […] total protein is dissolved in Laemmli SDS-PAGE sample buffer prior to separation by 10% SDS-PAGE. Proteins are transferred to PVDF membrane and Western blot analysis is performed by standard techniques with ECL detection (Amersham). The Bcl-xL antibody, clone 124 (Dako), is used at a 1:2000 dilution. The Bcl-xL, antibody, clone S-18 (Santa Cruz Biotechnology), is used at a 1:500 dilution. Blots are quantified by densitometry and expression levels were normalized to b-actin (Sigma).
Total RNA is isolated by lysis in guanidine isothiocyanate followed by centrifugation through a cesium chloride gradient. cDNA is prepared from 200 ng of total RNA in a […] reaction with AMV-RT (Boehringer-Mannheim). […] Tem ml of PCR products are electrophoresed on a 5% acrylamide gel and quantified by phosphorimaging using ImageQuant software (Molecular Dynamics).

MPC11 tumors = assay: MPC11 myeloma tumor growth in vivo; set-up: species or system BALB/c mice
Experimental: Mice and tumor formation in vivo. Six- to eight-week old female BALB/c mice are obtained from the National Cancer Institute (Frederick, Md.). Cohorts of 3-5 mice per group are used for these experiments. Mice are shaved on the right flank and injected subcutaneously (s.c.) with 5×10^5 of either MOPC or MPC11 cells in […] of PBS to induce tumors.
In vivo treatment with AG-490 and IL-12. When tumors reach about 5 […] in diameter, AG-490 treatment of tumors is initiated and continued daily for 7-10 days. For MOPC tumors, injections of 0.85 mg/day of AG-490 are given intratumorally, supplemented with 0.5 mg/day of AG-490 i.p. For MPC11 tumors, the intratumoral treatment is halved while the i.p. dose remains the same. Control mice receive 50% DMSO vehicle alone in the same volume as the AG-490 treatment group. Recombinant IL-12 is given s.c. at either 100 ng or 200 ng every other day. Tumor growth is monitored daily by measuring two perpendicular tumor diameters with a caliper, and tumor volume was calculated according to the formula V=0.52*a*b(a+b)/2 (a=smallest superficial diameter; b=largest superficial diameter).

STAT3 = assay: EMSA of constitutive STAT3 DNA-binding activity in MDA-MB-468 breast carcinoma cells; type: cell-based, human; details: MDA-MB-468 cells; dose-dependent
Experimental: FIG. 6: Src and JAK Inhibitors Block Growth and STAT3 Activation in Breast Carcinoma Cells. MDA-MD-468 cells are treated with inhibitors of EGF receptor (PD158780), Src (PD180970), or JAKs (AG490), and effects on cell growth (Panel A) and STAT3 DNA-binding activity (Panel B) are determined.
STAT DNA-binding activity in human breast cancer cell lines is examined by electrophoretic mobility shift assays (EMSA) (Garcia et al., 1997, Cell Growth Diff. 8:1267-1276). In these experiments, EMSAs are performed using the ^32P-labeled sis-inducible element (SIE) as a probe to detect STAT DNA-binding activity in nuclear extracts of cells. This synthetic DNA oligonucleotide probe is a high-affinity mutant of the c-fos SIE, called hSIE, that binds both STAT1 and STAT3 (Yu, et al., 1995, Science 269:81-83). […] This activation is constitutive and occurs in the absence of exogenous EGF stimulation. By contrast, STAT3 activation is not detected in any of the three cell lines derived from normal breast tissue.
The involvement of these, and other, tyrosine kinases in STAT3 activation is tested using specific inhibitors of JAK family kinases, and the EGF receptor and Src family kinases.

peritoneal macrophages = assay: Cytostatic activity of peritoneal macrophages against J558 myeloma cells; set-up: species or system mice; details: daily i.p. in vivo treatment
Experimental: Peritoneal macrophage preparation and cytostatic test. […] The peritoneal macrophage population is enriched by adhesion on plastic plates followed by washing and aspiration of non-adherent cells. The percentage of macrophages among adherent cells is estimated by morphological criteria using Giemsa staining (>95%). Antitumor cytostatic activity of macrophages is determined by inhibition of DNA synthesis of target tumor cells (J558 myeloma cells). Briefly, macrophage-sensitive J558 cells (2×10^4/well) are co-cultured for 48 hours with and without macrophages (2×10^5/well) prepared from individual mice. To estimate DNA synthesis, the cells are pulsed with ^3H-thymidine (^3H-TdR) ([…]) during the last 6 hours of incubation. ^3H-TdR incorporation is determined using a liquid scintillation b-counter (Pharmacia Wallac, Finland). Results are expressed as percentage of inhibition of ^3H-TdR incorporation by J558 cells incubated with macrophages compared to ^3H-TdR incorporation by J558 cells incubated in medium alone.

SMILES: N#C/C(=C\c1ccc(O)c(O)c1)C(=O)NCc1ccccc1 [AG490]
- apoptosis induced in Bcl-xL overexpressing cells [1]: resistant
- expression of Bcl-2 (Bcl-2): no effect
- time to tumor regrowth or metastasis after termination of treatment (MPC11 tumors; MPC11 tumors): 4 to 7 days
- MPC11 tumor response (MPC11 tumors; pre-existing MPC11 tumors, all treated mice): rapid rejection; also recorded: all of the tumors in AG-490-treated mice regressed
- constitutive STAT3 activation (STAT3 DNA-binding activity) (STAT3): effectively blocked
- IL-12-induced cytostatic activity of peritoneal macrophages against target tumor cells (peritoneal macrophages): does not influence
